Legend:
Assay in all cases: combination Emax (second highest fraction inhibited in the dose matrix, 72 h); higher = more inhibition; extreme values may be limits of the assay
[1] = system: BT-20 (Breast Carcinoma)
Summary of the method: (§1)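 After 24 hours at 37°C and 5% CO2 in 1536-well plates, cells in DMEM/F12 or RPMI plus 10% FBS received two-drug dose matrices for 72 hours. Viability came from CellTiter-Glo 2.0 luminescence and was scaled as inhibition, anchored at 0 by vehicle wells and at 1 by blank wells. Combination Emax is taken as the second-highest inhibition in the matrix, and Bliss excess as the observed combination effect less EA + EB − EA·EB, with EA and EB the single-agent effects.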

[2] = system: DG-75 (Burkitt's Lymphoma)
Summary of the method: as §1

[3] = system: EMC-BAC-2 (Non-Small Cell Lung Carcinoma)
Summary of the method: as §1

[4] = system: H-EMC-SS (Chondrosarcoma)
Summary of the method: as §1

[5] = system: HSC-2 (Oral Cavity Carcinoma)
Summary of the method: as §1

[6] = system: HuP-T3 (Pancreatic Carcinoma)
Summary of the method: as §1

[7] = system: IMR-5 (Neuroblastoma)
Summary of the method: as §1

[8] = system: KLE (Endometrial Carcinoma)
Summary of the method: as §1

[9] = system: KP-2 (Pancreatic Carcinoma)
Summary of the method: as §1

[10] = system: KU-19-19 (Bladder Carcinoma)
Summary of the method: as §1

[11] = system: KYSE-50 (Esophageal Squamous Cell Carcinoma)
Summary of the method: as §1

[12] = system: NB7 (Neuroblastoma)
Summary of the method: as §1

[13] = system: NCI-H1573 (Lung Adenocarcinoma)
Summary of the method: as §1

[14] = system: NCI-H2347 (Lung Adenocarcinoma)
Summary of the method: as §1

[15] = system: NCI-H2405 (Lung Adenocarcinoma)
Summary of the method: as §1

[16] = system: NCI-H513 (Other Solid Carcinomas)
Summary of the method: as §1

[17] = system: OCUB-M (Breast Carcinoma)
Summary of the method: as §1

[18] = system: SCC-3 (B-Cell Non-Hodgkin's Lymphoma)
Summary of the method: as §1

| SMILES | combination Emax [1] | combination Emax [2] | combination Emax [3] | combination Emax [4] | combination Emax [5] | combination Emax [6] | combination Emax [7] | combination Emax [8] | combination Emax [9] | combination Emax [10] | combination Emax [11] | combination Emax [12] | combination Emax [13] | combination Emax [14] | combination Emax [15] | combination Emax [16] | combination Emax [17] | combination Emax [18] |
| --- | --- | --- | --- | --- | --- | --- | --- | --- | --- | --- | --- | --- | --- | --- | --- | --- | --- | --- |
| COc1cc2c(cc1OCCCCCOc1cc3c(cc1OC)C(=O)N1C=C(C)C[C@H]1C=N3)N=C[C@@H]1CC(C)=CN1C2=O [SG3199] + O=C(c1cc(Cc2n[nH]c(=O)c3ccccc23)ccc1F)N1CCN(C(=O)C2CC2)CC1 [Olaparib] (first compound max 0.001 µM, 7x7, partner max 10 µM) | 0.154 | 0.201 | 0.169 | 0.0837 | 0.116 | 0.112 | 0.543 | 0.184 | 0.13 | 0.247 | 0.0539 | 0.166 | 0.0928 | 0.181 | 0.081 | 0.107 | 0.232 | 0.437 |
| CCN(CCO)CCCOc1ccc2c(Nc3cc(CC(=O)Nc4cccc(F)c4)[nH]n3)ncnc2c1 [AZD2811] + C=CCn1c(=O)c2cnc(Nc3ccc(N4CCN(C)CC4)cc3)nc2n1-c1cccc(C(C)(C)O)n1 [AZD1775] (first compound max 1 µM, partner max 1 µM) | 0.455 | 0.776 | 0.223 | 0.257 | 0.43 | 0.197 | 0.998 | 0.564 | 0.206 | 0.765 | 0.301 | 0.662 | 0.178 | 0.32 | 0.128 | 0.368 | 0.779 | 0.923 |
| COc1cccc(OCCCN)c1-c1cc(Nc2cnc(C#N)cn2)n[nH]1 [Prexasertib] + CN(C)CCCOc1ccc(-c2ccc3ncc4c(c3c2)n(C2CCOCC2)c(=O)n4C)cn1 [AZD0156] (first compound max 1 µM, 7x7, partner max 1 µM) | 0.626 | 0.964 | 0.591 | 0.493 | 0.776 | 0.7 | 0.963 | 0.471 | 0.441 | 0.865 | 0.844 | 0.858 | 0.652 | 0.42 | 0.406 | 0.343 | 0.574 | 1 |
| CCc1c2c(nc3ccc(O)cc13)-c1cc3c(c(=O)n1C2)COC(=O)[C@]3(O)CC [SN-38] + CN(C)CCCOc1ccc(-c2ccc3ncc4c(c3c2)n(C2CCOCC2)c(=O)n4C)cn1 [AZD0156] (first compound max 0.3 µM, 7x7, partner max 1 µM) | 0.81 | 0.856 | 0.594 | 0.643 | 0.965 | 0.704 | 0.993 | 0.453 | 0.404 | 0.828 | 0.171 | 0.913 | 0.228 | 0.564 | 0.448 | 0.544 | 0.764 | 1 |
| COc1cccc(OCCCN)c1-c1cc(Nc2cnc(C#N)cn2)n[nH]1 [Prexasertib] + C=CCn1c(=O)c2cnc(Nc3ccc(N4CCN(C)CC4)cc3)nc2n1-c1cccc(C(C)(C)O)n1 [AZD1775] (first compound max 1 µM, partner max 1 µM) | 0.839 | 0.995 | 0.608 | 0.554 | 0.882 | 0.679 | 1 | 0.674 | 0.613 | 0.858 | 0.852 | 0.938 | 0.713 | 0.481 | 0.388 | 0.505 | 0.954 | 1 |
| Cc1cc2ncnn2cc1Nc1ncc2c(n1)n(C1CCOCC1)c(=O)n2C [AZD7648] + CCN(CCO)CCCOc1ccc2c(Nc3cc(CC(=O)Nc4cccc(F)c4)[nH]n3)ncnc2c1 [AZD2811] (first compound max 10 µM, 7x7, partner max 1 µM) | 0.426 | 0.475 | 0.349 | 0.545 | 0.547 | 0.161 | 0.98 | 0.382 | 0.0095 | 0.489 | 0.341 | 0.406 | 0.214 | 0.302 | 0.188 | 0.116 | 0.764 | 0.338 |
| C=CCn1c(=O)c2cnc(Nc3ccc(N4CCN(C)CC4)cc3)nc2n1-c1cccc(C(C)(C)O)n1 [AZD1775] + O=C(c1cc(Cc2n[nH]c(=O)c3ccccc23)ccc1F)N1CCN(C(=O)C2CC2)CC1 [Olaparib] (first compound max 1 µM, partner max 10 µM) | 0.518 | 0.694 | 0.269 | 0.333 | 0.63 | 0.274 | 0.83 | 0.456 | 0.225 | 0.804 | 0.301 | 0.632 | 0.325 | 0.35 | 0.192 | 0.389 | 0.504 | 0.968 |
| Cc1cc2ncnn2cc1Nc1ncc2c(n1)n(C1CCOCC1)c(=O)n2C [AZD7648] + C[C@@H]1COCCN1C2=NC(=NC(=C2)C3(CC3)[S@](=N)(=O)C)C4=C5C=CNC5=NC=C4 [AZD6738] (first compound max 10 µM, 7x7, partner max 10 µM) | 0.479 | 0.885 | 0.513 | 0.475 | 0.596 | 0.606 | 0.951 | 0.419 | 0.0981 | 0.782 | 0.628 | 0.572 | 0.592 | 0.401 | 0.241 | 0.31 | 0.49 | 0.857 |
| Cc1cc2ncnn2cc1Nc1ncc2c(n1)n(C1CCOCC1)c(=O)n2C [AZD7648] + C=CCn1c(=O)c2cnc(Nc3ccc(N4CCN(C)CC4)cc3)nc2n1-c1cccc(C(C)(C)O)n1 [AZD1775] (first compound max 10 µM, partner max 1 µM) | 0.559 | 0.833 | 0.392 | 0.53 | 0.596 | 0.283 | 0.781 | 0.508 | 0.187 | 0.749 | 0.431 | 0.575 | 0.308 | 0.359 | 0.192 | 0.431 | 0.448 | 0.815 |
| CN(C)CCCOc1ccc(-c2ccc3ncc4c(c3c2)n(C2CCOCC2)c(=O)n4C)cn1 [AZD0156] + C=CCn1c(=O)c2cnc(Nc3ccc(N4CCN(C)CC4)cc3)nc2n1-c1cccc(C(C)(C)O)n1 [AZD1775] (first compound max 1 µM, partner max 1 µM) | 0.476 | 0.759 | 0.304 | 0.346 | 0.54 | 0.205 | 0.741 | 0.531 | 0.147 | 0.751 | 0.27 | 0.6 | 0.159 | 0.335 | 0.0974 | 0.393 | 0.209 | 0.941 |
| COc1cccc(OCCCN)c1-c1cc(Nc2cnc(C#N)cn2)n[nH]1 [Prexasertib] + C[C@@H]1COCCN1C2=NC(=NC(=C2)C3(CC3)[S@](=N)(=O)C)C4=C5C=CNC5=NC=C4 [AZD6738] (first compound max 1 µM, 7x7, partner max 10 µM) | 0.599 | 0.942 | 0.497 | 0.383 | 0.741 | 0.663 | 1 | 0.437 | 0.398 | 0.836 | 0.818 | 0.808 | 0.669 | 0.458 | 0.337 | 0.363 | 0.585 | 1 |
| COc1cccc2c1C(=O)c1c(O)c3c(c(O)c1C2=O)C[C@@](O)(C(=O)CO)C[C@@H]3O[C@H]1C[C@H](N)[C@H](O)[C@H](C)O1 [Doxorubicin] + Cc1cc2ncnn2cc1Nc1ncc2c(n1)n(C1CCOCC1)c(=O)n2C [AZD7648] (first compound max 1 µM, 7x7, partner max 10 µM) | 0.769 | 0.882 | 0.829 | 0.957 | 0.89 | 0.606 | 1 | 0.6 | 0.513 | 0.814 | 0.678 | 0.826 | 0.255 | 0.253 | 0.201 | 0.527 | 0.943 | 0.978 |
| Cc1cc2ncnn2cc1Nc1ncc2c(n1)n(C1CCOCC1)c(=O)n2C [AZD7648] + CN(C)CCCOc1ccc(-c2ccc3ncc4c(c3c2)n(C2CCOCC2)c(=O)n4C)cn1 [AZD0156] (first compound max 10 µM, 7x7, partner max 1 µM) | 0.413 | 0.409 | 0.311 | 0.545 | 0.398 | 0.141 | 0.239 | 0.36 | 0.0295 | 0.212 | 0.164 | 0.213 | 0.15 | 0.336 | 0.183 | 0.133 | 0.4 | 0.299 |
| Cc1cc2ncnn2cc1Nc1ncc2c(n1)n(C1CCOCC1)c(=O)n2C [AZD7648] + O=C(c1cc(Cc2n[nH]c(=O)c3ccccc23)ccc1F)N1CCN(C(=O)C2CC2)CC1 [Olaparib] (first compound max 10 µM, 7x7, partner max 10 µM) | 0.313 | 0.481 | 0.204 | 0.321 | 0.228 | 0.12 | 0.475 | 0.419 | 0.12 | 0.251 | 0.0839 | 0.219 | 0.0771 | 0.224 | 0.093 | 0.257 | 0.256 | 0.435 |

Source: the supplement of paper PMC11061612
